Results: ChEMBL document CHEMBL4270534, “Novel carbazole-triazole conjugates as DNA-targeting membrane active potentiators against clinical isolated fungi” (Eur J Med Chem, 2018)
Converted amounts (≈) assume the structure as drawn.

Tests used:
Assay type in all cases: functional
Candida albicans [1] = experiment: Antifungal activity against Candida albicans after 24 hrs by two-fold broth microdilution assay
Escherichia coli [2] = experiment: Antibacterial activity against Escherichia coli after 24 hrs by micro broth dilution method
Pseudomonas aeruginosa [3] = experiment: Antibacterial activity against Pseudomonas aeruginosa ATCC 27853 after 24 hrs by micro broth dilution method; settings: ATCC 27853, 24 h
Escherichia coli [4] = experiment: Antibacterial activity against Escherichia coli ATCC 25922 after 24 hrs by micro broth dilution method; settings: ATCC 25922, 24 h
Pseudomonas aeruginosa [5] = experiment: Antibacterial activity against Pseudomonas aeruginosa after 24 hrs by micro broth dilution method
Acinetobacter baumannii = experiment: Antibacterial activity against Acinetobacter baumannii after 24 hrs by micro broth dilution method
Staphylococcus aureus [6] = experiment: Antibacterial activity against Staphylococcus aureus ATCC 25923 after 24 hrs by micro broth dilution method; settings: ATCC 25923, 24 h
Candida tropicalis [7] = experiment: Antifungal activity against Candida tropicalis after 24 hrs by two-fold broth microdilution assay
Enterococcus faecalis = experiment: Antibacterial activity against Enterococcus faecalis after 24 hrs by micro broth dilution method
Candida parapsilosis [8] = experiment: Antifungal activity against Candida parapsilosis ATCC 22019 after 24 hrs by two-fold broth microdilution assay; settings: Lodderomyces parapsilosis, ATCC 22019, 24 h
Staphylococcus aureus [9] = experiment: Antibacterial activity against Staphylococcus aureus after 24 hrs by micro broth dilution method
Klebsiella pneumoniae = experiment: Antibacterial activity against Klebsiella pneumoniae after 24 hrs by micro broth dilution method
Candida albicans [10] = experiment: Antifungal activity against Candida albicans ATCC 90023 after 24 hrs by two-fold broth microdilution assay; settings: ATCC 90023, 24 h
Staphylococcus aureus [11] = experiment: Antibacterial activity against Staphylococcus aureus ATCC 29213 after 24 hrs by micro broth dilution method; settings: ATCC 29213, 24 h
Staphylococcus aureus [12] = experiment: Antibacterial activity against methicillin-resistant Staphylococcus aureus after 24 hrs by micro broth dilution method
Aspergillus fumigatus = experiment: Antifungal activity against Aspergillus fumigatus after 24 hrs by two-fold broth microdilution assay
Candida parapsilosis [13] = experiment: Fungicidal activity against Candida parapsilosis ATCC 22019 incubated for 24 hrs followed by plating onto tryptic soy agar medium and measured after 24 hrs by broth microdilution method; settings: Lodderomyces parapsilosis, ATCC 22019, 24 h
Candida tropicalis [14] = experiment: Ratio of MFC to MIC for Candida tropicalis
Candida tropicalis [15] = experiment: Fungicidal activity against Candida tropicalis incubated for 24 hrs followed by plating onto tryptic soy agar medium and measured after 24 hrs by broth microdilution method
Candida albicans [16] = experiment: Fungicidal activity against Candida albicans incubated for 24 hrs followed by plating onto tryptic soy agar medium and measured after 24 hrs by broth microdilution method
Candida albicans [17] = experiment: Ratio of MFC to MIC for Candida albicans
Candida parapsilosis [18] = experiment: Ratio of MFC to MIC for Candida parapsilosis ATCC 22019

Row | SMILES | MIC (Candida albicans [1]) [µg/mL] | MIC (Escherichia coli [2]) [µg/mL] | MIC (Pseudomonas aeruginosa [3]) [µg/mL] | MIC (Escherichia coli [4]) [µg/mL] | MIC (Pseudomonas aeruginosa [5]) [µg/mL] | MIC (Acinetobacter baumannii) [µg/mL] | MIC (Staphylococcus aureus [6]) [µg/mL] | MIC (Candida tropicalis [7]) [µg/mL] | MIC (Enterococcus faecalis) [µg/mL] | MIC (Candida parapsilosis [8]) [µg/mL] | MIC (Staphylococcus aureus [9]) [µg/mL] | MIC (Klebsiella pneumoniae) [µg/mL] | MIC (Candida albicans [10]) [µg/mL] | MIC (Staphylococcus aureus [11]) [µg/mL] | MIC (Staphylococcus aureus [12]) [µg/mL] | MIC (Aspergillus fumigatus) [µg/mL] | other results
1 | CC(C)(C)c1ccc2c(c1)c1cc(C(C)(C)C)ccc1n2CC(O)(Cn1cncn1)c1ccc(F)cc1F (stereo not given) | 64 (≈ 124 µM) | 128 (≈ 248 µM) | 64 (≈ 124 µM) | 128 (≈ 248 µM) | 128 (≈ 248 µM) | 256 (≈ 496 µM) | 32 (≈ 61.9 µM) | 64 (≈ 124 µM) | 128 (≈ 248 µM) | 64 (≈ 124 µM) | 256 (≈ 496 µM) | 32 (≈ 61.9 µM) | 128 (≈ 248 µM) | 256 (≈ 496 µM) | 64 (≈ 124 µM) | 256 (≈ 496 µM) | –
2 | OC(Cn1cncn1)(Cn1c2ccc(Br)cc2c2cc(Br)ccc21)c1ccc(Cl)c(Cl)c1 (stereo not given) | 4 (≈ 6.72 µM) | 64 (≈ 108 µM) | 32 (≈ 53.8 µM) | 32 (≈ 53.8 µM) | 64 (≈ 108 µM) | 128 (≈ 215 µM) | 16 (≈ 26.9 µM) | 8 (≈ 13.4 µM) | 16 (≈ 26.9 µM) | 16 (≈ 26.9 µM) | 64 (≈ 108 µM) | 128 (≈ 215 µM) | 32 (≈ 53.8 µM) | 32 (≈ 53.8 µM) | 8 (≈ 13.4 µM) | 32 (≈ 53.8 µM) | MFC (Candida parapsilosis [13]): 32 µg/mL (≈ 53.8 µM); Ratio (Candida tropicalis [14]): 1; MFC (Candida tropicalis [15]): 8 µg/mL (≈ 13.4 µM); MFC (Candida albicans [16]): 16 µg/mL (≈ 26.9 µM); Ratio (Candida albicans [17]): 4; Ratio (Candida parapsilosis [18]): 2
3 | OC(Cn1cncn1)(Cn1ccc2ccccc21)c1ccc(F)cc1F (stereo not given) | 32 (≈ 90.3 µM) | 64 (≈ 181 µM) | 128 (≈ 361 µM) | 32 (≈ 90.3 µM) | 64 (≈ 181 µM) | 128 (≈ 361 µM) | 32 (≈ 90.3 µM) | 64 (≈ 181 µM) | 64 (≈ 181 µM) | 64 (≈ 181 µM) | 128 (≈ 361 µM) | 128 (≈ 361 µM) | 128 (≈ 361 µM) | 64 (≈ 181 µM) | 32 (≈ 90.3 µM) | 32 (≈ 90.3 µM) | –
4 | OC(Cn1cncn1)(Cn1c2ccc(Br)cc2c2cc(Br)ccc21)c1ccc(Cl)cc1 (stereo not given) | 8 (≈ 14.3 µM) | 128 (≈ 228 µM) | 16 (≈ 28.5 µM) | 16 (≈ 28.5 µM) | 256 (≈ 457 µM) | 256 (≈ 457 µM) | 32 (≈ 57.1 µM) | 32 (≈ 57.1 µM) | 16 (≈ 28.5 µM) | 32 (≈ 57.1 µM) | 32 (≈ 57.1 µM) | 256 (≈ 457 µM) | 64 (≈ 114 µM) | 16 (≈ 28.5 µM) | 16 (≈ 28.5 µM) | 64 (≈ 114 µM) | –
5 | CCn1cc(C(=O)O)c(=O)c2cc(F)c(N3CCNCC3)cc21 [NORFLOXACIN] | – | 16 (≈ 50.1 µM) | 0.5 (≈ 1.57 µM) | 8 (≈ 25.1 µM) | 2 (≈ 6.26 µM) | 8 (≈ 25.1 µM) | 1 (≈ 3.13 µM) | – | 4 (≈ 12.5 µM) | – | 2 (≈ 6.26 µM) | 4 (≈ 12.5 µM) | – | 8 (≈ 25.1 µM) | 8 (≈ 25.1 µM) | – | –
6 | OC(Cn1cncn1)(Cn1c2ccc(Br)cc2c2cc(Br)ccc21)c1ccc(F)cc1 (stereo not given) | 8 (≈ 14.7 µM) | 64 (≈ 118 µM) | 64 (≈ 118 µM) | 16 (≈ 29.4 µM) | 128 (≈ 235 µM) | 256 (≈ 470 µM) | 32 (≈ 58.8 µM) | 16 (≈ 29.4 µM) | 64 (≈ 118 µM) | 8 (≈ 14.7 µM) | 64 (≈ 118 µM) | 256 (≈ 470 µM) | 64 (≈ 118 µM) | 16 (≈ 29.4 µM) | 64 (≈ 118 µM) | 128 (≈ 235 µM) | MFC (Candida parapsilosis [13]): 16 µg/mL (≈ 29.4 µM); Ratio (Candida tropicalis [14]): 2; MFC (Candida tropicalis [15]): 32 µg/mL (≈ 58.8 µM); MFC (Candida albicans [16]): 32 µg/mL (≈ 58.8 µM); Ratio (Candida albicans [17]): 4; Ratio (Candida parapsilosis [18]): 2
7 | Cc1ccc(C(O)(Cn2cncn2)Cn2c3ccc(Br)cc3c3cc(Br)ccc32)cc1 (stereo not given) | 64 (≈ 118 µM) | 256 (≈ 474 µM) | 64 (≈ 118 µM) | 16 (≈ 29.6 µM) | 256 (≈ 474 µM) | 256 (≈ 474 µM) | 128 (≈ 237 µM) | 32 (≈ 59.2 µM) | 64 (≈ 118 µM) | 32 (≈ 59.2 µM) | 256 (≈ 474 µM) | 256 (≈ 474 µM) | 128 (≈ 237 µM) | 256 (≈ 474 µM) | 128 (≈ 237 µM) | 64 (≈ 118 µM) | –
8 | OC(Cn1cncn1)(Cn1c2ccccc2c2cc(I)ccc21)c1ccc(F)cc1F (stereo not given) | 16 (≈ 30.2 µM) | 256 (≈ 483 µM) | 256 (≈ 483 µM) | 32 (≈ 60.3 µM) | 128 (≈ 241 µM) | 128 (≈ 241 µM) | 16 (≈ 30.2 µM) | 16 (≈ 30.2 µM) | 16 (≈ 30.2 µM) | 32 (≈ 60.3 µM) | 128 (≈ 241 µM) | 256 (≈ 483 µM) | 64 (≈ 121 µM) | 16 (≈ 30.2 µM) | 32 (≈ 60.3 µM) | 64 (≈ 121 µM) | –
